The record followed here is patent US10968236B2, “TYK2 inhibitors and uses thereof” (Nimbus Lakshmi, Inc., priority 2015, dated 2021).

Bounds are passed on as bounds.

The target in one experiment is TYK2 (Homo sapiens (Human), UniProt P29597). As to the kind of experiment: Tyk2 activity inhibition assay (radioactive kinase / Caliper assay). The format is biochemical. As for the experimental part: (§1) Peptide substrate, [KKSRGDYMTMQIG], (20 μM) is prepared in reaction buffer (20 mM Hepes pH 7.5, 10 mM MgCl2, 1 mM EGTA, 0.02% Brij35, 0.02 mg/mL BSA, 0.1 mM […], 2 mM DTT, 1% DMSO. TYK2 (Invitrogen) kinase is added, followed by compounds in DMSO. 33PATP is added to initiate the reaction in ATP at 10 μM. Kinase reaction is incubated for 120 min at room temp and reactions are spotted onto P81 ion exchange paper (Whatman #3698-915), and then washed extensively in 0.75% phosphoric acid, prior to reading the radioactivity counts. For JAK2 (Invitrogen) kinase assay the peptide substrate poly[Glu:Tyr] (4:1), 0.2 mg/ml is used, in the reaction carried out the same as for TYK2.
Chain of TYK2 (P29597 whole entry): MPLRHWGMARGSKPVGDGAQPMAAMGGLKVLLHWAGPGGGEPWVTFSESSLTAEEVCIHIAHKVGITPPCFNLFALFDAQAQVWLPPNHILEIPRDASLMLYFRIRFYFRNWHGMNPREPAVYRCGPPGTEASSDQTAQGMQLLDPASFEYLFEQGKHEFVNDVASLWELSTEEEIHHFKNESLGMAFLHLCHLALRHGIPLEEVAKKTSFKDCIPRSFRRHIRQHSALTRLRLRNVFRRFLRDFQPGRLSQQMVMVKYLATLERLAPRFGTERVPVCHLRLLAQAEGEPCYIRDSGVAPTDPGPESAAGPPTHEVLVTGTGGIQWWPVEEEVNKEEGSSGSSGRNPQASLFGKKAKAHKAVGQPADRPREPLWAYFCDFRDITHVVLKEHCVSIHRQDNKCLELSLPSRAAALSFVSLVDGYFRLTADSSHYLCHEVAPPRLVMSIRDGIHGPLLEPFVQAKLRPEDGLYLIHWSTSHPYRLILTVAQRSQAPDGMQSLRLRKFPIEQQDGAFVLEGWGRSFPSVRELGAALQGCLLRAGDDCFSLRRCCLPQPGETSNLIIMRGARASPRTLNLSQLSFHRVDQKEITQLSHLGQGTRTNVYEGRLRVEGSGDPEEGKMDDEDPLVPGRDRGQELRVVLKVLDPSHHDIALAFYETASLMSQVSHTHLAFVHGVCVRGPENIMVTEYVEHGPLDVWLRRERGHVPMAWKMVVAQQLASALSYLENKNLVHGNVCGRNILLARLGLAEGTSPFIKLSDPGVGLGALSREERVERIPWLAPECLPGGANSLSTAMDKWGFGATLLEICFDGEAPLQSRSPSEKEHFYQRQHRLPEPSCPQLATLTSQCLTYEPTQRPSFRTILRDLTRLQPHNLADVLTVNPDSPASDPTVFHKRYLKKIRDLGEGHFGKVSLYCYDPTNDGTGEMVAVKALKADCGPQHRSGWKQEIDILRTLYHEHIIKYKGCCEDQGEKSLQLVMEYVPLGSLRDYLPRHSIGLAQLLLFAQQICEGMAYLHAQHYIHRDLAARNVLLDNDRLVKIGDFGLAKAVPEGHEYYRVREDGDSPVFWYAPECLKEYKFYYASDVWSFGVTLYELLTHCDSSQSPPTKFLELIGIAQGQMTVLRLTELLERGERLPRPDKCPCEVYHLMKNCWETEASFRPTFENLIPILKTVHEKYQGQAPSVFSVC
(§2) The caliper machine employs an off chip mobility shift assay to detect phosphorylated peptide substrates from kinase assays, using microfluidics technology. The assays are carried out at ATP concentration equivalent to the ATP Km, and at 1 mM ATP. Compounds are serially diluted in DMSO then further diluted in assay buffer (25 mM HEPES, pH 7.5, 0.01% Brij-35, 0.01% Triton, 0.5 mM EGTA). 5 ul of diluted compound was added into wells first, then 10 ul of enzyme mix was added into wells, followed by 10 uL of substrate mix (peptide and ATP in 10 mM MgCl2) to start reaction. Reaction was incubated at 28° C. for 25 min and then added 25 ul stop buffer (100 mM HEPES, 0.015% Brij-35, 50 mM EDTA), followed by reading with Caliper. JAK2 at 1 nM final concentration and TYK2 at 9.75 nM are from Carna, and substrates used are ATP at 20 and 16 uM, respectively. JAK2 assay uses peptide 22 and TYK2 uses peptide 30 (Caliper), each at 3 uM.
(§3) The compound numbers correspond to the compound numbers in Table 1. Compounds having an activity designated as “A” provided an Ki≤0.01 μM; compounds having an activity designated as “B” provided an Ki of 0.01-0.1 μM; compounds having an activity designated as “C” provided an Ki of 0.1-1.0 μM; and compounds having an activity designated as “D” provided an Ki≥1.0 μM.

For the next experiment, the target named is JAK2 (Homo sapiens (Human), UniProt O60674). As to the kind of experiment: JAK2 activity inhibition assay (radioactive kinase / Caliper assay). The format is biochemical. As for the experimental part: as §1, §2, §3
Chain of JAK2 (O60674 whole entry): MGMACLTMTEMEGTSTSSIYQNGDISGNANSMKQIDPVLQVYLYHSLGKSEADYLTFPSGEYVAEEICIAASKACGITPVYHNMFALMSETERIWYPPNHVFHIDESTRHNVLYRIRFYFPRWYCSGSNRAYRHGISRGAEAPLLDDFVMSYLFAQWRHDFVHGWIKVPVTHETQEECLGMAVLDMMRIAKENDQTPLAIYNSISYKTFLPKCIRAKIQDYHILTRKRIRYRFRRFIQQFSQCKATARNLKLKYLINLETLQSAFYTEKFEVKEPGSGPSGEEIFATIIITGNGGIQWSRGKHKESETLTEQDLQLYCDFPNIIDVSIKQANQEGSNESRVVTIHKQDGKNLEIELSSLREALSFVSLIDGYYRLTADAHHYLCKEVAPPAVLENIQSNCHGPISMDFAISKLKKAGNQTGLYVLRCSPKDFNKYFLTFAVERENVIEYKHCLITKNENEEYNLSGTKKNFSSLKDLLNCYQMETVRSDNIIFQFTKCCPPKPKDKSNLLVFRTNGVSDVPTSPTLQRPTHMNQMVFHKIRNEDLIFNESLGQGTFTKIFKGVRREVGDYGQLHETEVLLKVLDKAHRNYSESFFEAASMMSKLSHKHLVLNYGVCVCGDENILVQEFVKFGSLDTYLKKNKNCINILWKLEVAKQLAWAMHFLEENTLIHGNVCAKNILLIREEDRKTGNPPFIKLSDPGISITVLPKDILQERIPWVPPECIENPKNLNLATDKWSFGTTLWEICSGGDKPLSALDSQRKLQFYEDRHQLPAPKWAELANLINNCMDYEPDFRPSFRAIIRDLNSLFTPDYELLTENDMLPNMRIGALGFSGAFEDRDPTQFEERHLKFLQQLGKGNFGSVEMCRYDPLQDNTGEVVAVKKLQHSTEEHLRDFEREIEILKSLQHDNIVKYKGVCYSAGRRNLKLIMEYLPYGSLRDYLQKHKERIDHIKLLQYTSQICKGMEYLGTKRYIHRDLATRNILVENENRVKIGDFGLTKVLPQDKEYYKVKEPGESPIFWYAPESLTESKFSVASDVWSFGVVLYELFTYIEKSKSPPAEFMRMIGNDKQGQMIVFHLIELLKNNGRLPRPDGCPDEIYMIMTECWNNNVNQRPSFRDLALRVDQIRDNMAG

For `O=C1NCc2nc(-c3c(F)cccc3F)nc(Nc3ccc(OC(CO)CO)cc3)c21` [Compound I-12, 2-(2,6-difluorophenyl)-4-((4-((1,3-dihydroxypropan-2-yl)oxy)phenyl)amino)-6,7-dihydro-5H-pyrrolo[3,4-d]pyrimidin-5-one], the Ki is ≤ 10 nM on TYK2 and 100 to 1000 nM at JAK2. For `N#Cc1cccc(F)c1-c1cc(Nc2ccc(N3CC[C@]4(C[C@@H](O)CO4)C3)cn2)c2c(n1)CNC2=O` [Compound I-92, 3-fluoro-2-(4-((5-((3R,5S)-3-hydroxy-1-oxa-7-azaspiro[4.4]nonan-7-yl)pyridin-2-yl)amino)-5-oxo-6,7-dihydro-5H-pyrrolo[3,4-b]pyridin-2-yl)benzonitrile], in that order: ≤ 10 nM and 10 to 100 nM.

For the molecule `CN1C(=O)C(C)(c2ccc(Nc3nc(-c4c(F)cccc4F)nc4c3C(=O)NC4)cc2)c2ccccc21` (centres unmarked) [Compound I-48, 2-(2,6-difluorophenyl)-4-((4-(1,3-dimethyl-2-oxoindolin-3-yl)phenyl)amino)-6,7-dihydro-5H-pyrrolo[3,4-d]pyrimidin-5-one], the figures for the Ki at TYK2 and at JAK2 were 10 to 100 nM and 100 to 1000 nM, respectively.

Turning to `CCNC(=O)C(C)(C)c1ccc(Nc2cc(-c3c(F)cccc3C#N)nc3c2C(=O)NC3)cc1` [Compound I-81, 2-(4-((2-(2-cyano-6-fluorophenyl)-5-oxo-6,7-dihydro-5H-pyrrolo[3,4-b]pyridin-4-yl)amino)phenyl)-N-ethyl-2-methylpropanamide], the inhibition constant (Ki) at TYK2 and at JAK2 was ≤ 10 nM each time. Consider `O=C1NCc2nc(-c3c(F)cccc3F)cc(Nc3ccc(C(=O)N4CCC5(CCCCO5)CC4)cc3)c21` [Compound I-54, 4-((4-(1-oxa-9-azaspiro[5.5]undecane-9-carbonyl)phenyl)amino)-2-(2,6-difluorophenyl)-6,7-dihydro-5H-pyrrolo[3,4-b]pyridin-5-one], for which the results for the Ki on TYK2 and on JAK2 were ≤ 10 nM and 10 to 100 nM, respectively. The like results for `O=C1NCc2nc(-c3c(F)cccc3F)cc(Nc3ccc(C(=O)N4CCOCC45CC5)cc3)c21` [Compound I-51, 4-((4-(7-oxa-4-azaspiro[2.5]octane-4-carbonyl)phenyl)amino)-2-(2,6-difluorophenyl)-6,7-dihydro-5H-pyrrolo[3,4-b]pyridin-5-one] were, in that order, ≤ 10 nM and ≤ 10 nM. For `N#Cc1cccc(F)c1-c1cc(Nc2ccc(N3CC4(CC4)C(O)C4(CC4)C3)cn2)c2c(n1)CNC2=O` [Compound I-87, 3-fluoro-2-(4-((5-(4-hydroxy-9-azadispiro[2.1.25.33]decan-9-yl)pyridin-2-yl)amino)-5-oxo-6,7-dihydro-5H-pyrrolo [3,4-b]pyridin-2-yl)benzonitrile], in that order: ≤ 10 nM and ≤ 10 nM. The like results for `CCNC(=O)C(O)(CC(F)(F)F)c1ccc(Nc2nc(-c3c(F)cccc3F)nc3c2C(=O)NC3)cc1` (centres unmarked) [Compound I-26, 2-(4-((2-(2,6-difluorophenyl)-5-oxo-6,7-dihydro-5H-pyrrolo[3,4-d]pyrimidin-4-yl)amino)phenyl)-N-ethyl-4,4,4-trifluoro-2-hydroxybutanamide] were, in that order, ≤ 10 nM and 100 to 1000 nM. In the case of `C[C@](O)(c1ccc(Nc2cc(-c3c(F)cccc3F)nc3c2C(=O)NC3)cc1)C(F)(F)F` [Compound I-43, (S)-2-(2,6-difluorophenyl)-4-((4-(1,1,1-trifluoro-2-hydroxypropan-2-yl)phenyl)amino)-6,7-dihydro-5H-pyrrolo[3,4-b]pyridin-5-one], the Ki at JAK2 was in the range of 10 to 100 nM. Regarding `O=C1NCc2nc(-c3c(F)cccc3F)cc(Nc3ccc(C(=O)N4CCC5(CC4)CC5)cc3)c21` [Compound I-57, 4-((4-(6-azaspiro[2.5]octane-6-carbonyl)phenyl)amino)-2-(2,6-difluorophenyl)-6,7-dihydro-5H-pyrrolo[3,4-b]pyridin-5-one], the inhibitory constant (Ki) was ≤ 10 nM at TYK2 and 10 to 100 nM at JAK2. The like results for `N#Cc1cccc(F)c1-c1cc(Nc2ccc(N3CC[C@@]4(C[C@@H](O)CO4)C3)cn2)c2c(n1)CNC2=O` [Compound I-90] were, in that order, ≤ 10 nM and ≤ 10 nM. For `CC1(c2ccc(Nc3cc(-c4c(F)cccc4F)nc4c3C(=O)NC4)nc2)CC(C)(C)N(C2=CCOCC2)C1=O` (centres unmarked) [Compound I-55, 2-(2,6-difluorophenyl)-4-((5-(1-(3,6-dihydro-2H-pyran-4-yl)-3,5,5-trimethyl-2-oxopyrrolidin-3-yl)pyridin-2-yl)amino)-6,7-dihydro-5H-pyrrolo[3,4-b]pyridin-5-one], in that order: ≤ 10 nM and ≤ 10 nM.

`CC1(C)COc2nc(Nc3cc(-c4c(F)cccc4C#N)nc4c3C(=O)NC4)ccc21` [Compound I-85, 2-(4-((3,3-dimethyl-2,3-dihydrofuro[2,3-b]pyridin-6-yl)amino)-5-oxo-6,7-dihydro-5H-pyrrolo[3,4-b]pyridin-2-yl)-3-fluorobenzonitrile]: the inhibition constant (Ki) on TYK2 and at JAK2 was ≥ 1000 nM each time. As for `O=C1NCc2nc(-c3c(F)cccc3F)cc(Nc3ccc(N4CCOCC45CC5)cn3)c21` [Compound I-47, 4-((5-(7-oxa-4-azaspiro[2.5]octan-4-yl)pyridin-2-yl)amino)-2-(2,6-difluorophenyl)-6,7-dihydro-5H-pyrrolo[3,4-b]pyridin-5-one], the Ki at TYK2 and on JAK2 was ≤ 10 nM throughout. Take `O=C1NCc2nc(-c3c(F)cccc3F)cc(Nc3ccc4c(c3)OCO4)c21` [Compound I-68, 4-(benzo[d][1,3]dioxol-5-ylamino)-2-(2,6-difluorophenyl)-6,7-dihydro-5H-pyrrolo[3,4-b]pyridin-5-one]: the Ki at TYK2 lay in the range of 10 to 100 nM; on JAK2, 100 to 1000 nM. The like results for `O=C1NCc2nc(-c3c(F)cccc3F)cc(Nc3ccc4cc[nH]c4n3)c21` [Compound I-21, 4-((1H-pyrrolo[2,3-b]pyridin-6-yl)amino)-2-(2,6-difluoro-phenyl)-6,7-dihydro-5H-pyrrolo[3,4-b]pyridin-5-one] were, in that order, ≤ 10 nM and 10 to 100 nM. Consider `CCNC(=O)[C@@](O)(CC(F)(F)F)c1ccc(Nc2nc(-c3c(F)cccc3F)nc3c2C(=O)NC3)cc1` [Compound I-28, (R)-2-(4-((2-(2,6-difluorophenyl)-5-oxo-6,7-dihydro-5H-pyrrolo[3,4-d]pyrimidin-4-yl)amino)phenyl)-N-ethyl-4,4,4-trifluoro-2-hydroxybutanamide], for which, at JAK2, the Ki lay within 100 to 1000 nM.

In the case of `C[C@@](O)(c1ccc(Nc2nc(-c3c(F)cccc3F)nc3c2C(=O)NC3)cc1)C(F)(F)F` [Compound I-35, (R)-2-(2,6-difluorophenyl)-4-((4-(1,1,1-trifluoro-2-hydroxy-propan-2-yl)phenyl)amino)-6,7-dihydro-5H-pyrrolo[3,4-d]pyrimidin-5-one], on JAK2, the Ki was 100 to 1000 nM.

Take `O=C1NCc2nc(-c3c(F)cccc3F)nc(Nc3ccc([C@H](O)C(F)(F)F)cc3)c21` [Compound I-30, (S)-2-(2,6-difluorophenyl)-4-((4-(2,2,2-trifluoro-1-hydroxyethyl)phenyl)amino)-6,7-dihydro-5H-pyrrolo[3,4-d]pyrimidin-5-one]: the Ki at JAK2 was in the range of 100 to 1000 nM. Still for that read-out and setting: the value for `O=C1NCc2nc(-c3c(F)cccc3F)nc(Nc3ccc([C@@H](O)C(F)(F)F)cc3)c21` [Compound I-31, (R)-2-(2,6-difluorophenyl)-4-((4-(2,2,2-trifluoro-1-hydro-xyethyl)phenyl)amino)-6,7-dihydro-5H-pyrrolo[3,4-d]pyrimidin-5-one] was 10 to 100 nM; that for `CCNC(=O)[C@](O)(CC(F)(F)F)c1ccc(Nc2nc(-c3c(F)cccc3F)nc3c2C(=O)NC3)cc1` [Compound I-27, (S)-2-(4-((2-(2,6-difluorophenyl)-5-oxo-6,7-dihydro-5H-pyrrolo[3,4-d]pyrimidin-4-yl)amino)phenyl)-N-ethyl-4,4,4-trifluoro-2-hydroxybutanamide] was 10 to 100 nM.

For the molecule `CN1C(=O)[C@](C)(c2ccc(Nc3nc(-c4c(F)cccc4F)nc4c3C(=O)NC4)cc2)Oc2ccccc21` [Compound I-40, (S)-2-(4-((2-(2,6-difluorophenyl)-5-oxo-6,7-dihydro-5H-pyrrolo[3,4-d]pyrimidin-4-yl)amino)phenyl)-2,4-dimethyl-2H-benzo[b][1,4]oxazin-3(4H)-one], the Ki on TYK2 was 100 to 1000 nM.

In the case of `C[C@@](O)(c1ccc(Nc2cc(-c3c(F)cccc3F)nc3c2C(=O)NC3)cc1)C(F)(F)F` [Compound I-44, (R)-2-(2,6-difluorophenyl)-4-((4-(1,1,1-trifluoro-2-hydroxy-nronan-2-yl)phenyl)amino)-6,7-dihydro-5H-pyrrolo[3,4-b]pyridin-5-one], the Ki at JAK2 fell in the range of 100 to 1000 nM.
